Assay results reported in US7977358B2, “Pyrazol derivatives” (Hoffmann-La Roche Inc., priority 2007, dated 2011).

Target: T1, human chemokine receptor 2 isoform B (CCR2B) (Homo sapiens, UniProt P41597)
T1 construct: host or cells: CHOK1-CCR2B-A5 (CHO-K1) cells
T1 sequence (P41597 1-360 isoform P41597-2): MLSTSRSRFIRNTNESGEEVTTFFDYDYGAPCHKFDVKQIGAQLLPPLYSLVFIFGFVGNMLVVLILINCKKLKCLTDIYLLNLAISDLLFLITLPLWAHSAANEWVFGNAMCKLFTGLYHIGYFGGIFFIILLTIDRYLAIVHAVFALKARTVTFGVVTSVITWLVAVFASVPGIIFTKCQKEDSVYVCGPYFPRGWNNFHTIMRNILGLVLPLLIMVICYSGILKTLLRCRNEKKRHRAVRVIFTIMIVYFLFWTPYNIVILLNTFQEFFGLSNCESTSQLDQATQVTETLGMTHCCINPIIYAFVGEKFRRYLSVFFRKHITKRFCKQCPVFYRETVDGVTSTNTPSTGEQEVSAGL
Assay: Calcium mobilization assay
Type: cell-based
Details: CHOK1-CCR2B-A5 cells, 20 nM MCP-1, FLIPR
Protocol: Calcium Mobilization Assay
CHOK1-CCR2B-A5 cells (from Euroscreen) stably overexpressing the human chemokine receptor 2 isoform B were cultured in Nutrient Hams F12 medium supplemented with 5% FBS, 100 U/ml penicillin, 100 μg/ml streptomycin, 400 μg/ml G418 and 5 μg/ml puromycin. For the assay cells were grown overnight in 384-well black clear flat bottom polystyrene plates (Costar) at 37° C. at 5% CO2. After washing with DMEM, 20 mM Hepes, 2.5 mM probenecid, 0.1% BSA (DMEM assay buffer) cells were loaded with 4 μM Fluo-4 in the same DMEM assay buffer for 2 hours at 30° C. Excess dye was removed and cells were washed with DMEM assay buffer. 384-well compound plates were prepared with DMEM assay buffer/0.5% DMSO with or without various concentrations of test compounds. Usually compounds were tested for agonist and antagonist activity.
Test compounds were added to the assay plate and agonist activity was monitored as fluorescence for 80 seconds with a FLIPR (488 nm excitation; 510-570 nm emission; Molecular Devices). After 20-30 min. of incubation at 30° C., 20 nM MCP-1 (R&D; Roche) was added and fluorescence was monitored again for 80 seconds. Increases in intracellular calcium are reported as maximum fluorescence after agonist exposure minus basal fluorescence before exposure. Antagonist activity is indicated as inhibitor concentration required for 50% inhibition of specific calcium increases.

IC50 [nM]	SMILES
154	Cc1nn(-c2cccc(OC(F)(F)F)c2)c(C2CC2)c1C(=O)N1CCC(N2C[C@@H](O)CC2C)CC1 (stereo in doubt) [Example 138, [5-Cyclopropyl-3-methyl-1-(3-trifluoromethoxy-phenyl)-1H-pyrazol-4-yl]-[4-((2R,4S)-4-hydroxy-2-methyl-pyrrolidin-1-yl)-piperidin-1-yl]-methanone]
100	CCN(CC)C1CCN(C(=O)c2c(C)nn(-c3cccc(/C=C/c4ccc(Cl)cc4)c3)c2C)C1 (centres unmarked) [Example 29, (1-{3-[(E)-2-(4-Chloro-phenyl)-vinyl]-phenyl}-3,5-dimethyl-1H-pyrazol-4-yl)-(3-diethylamino-pyrrolidin-1-yl)-methanone]
122	O=C(c1c(C2CC2)nn(-c2cccc(OC(F)(F)F)c2)c1C1CC1)N1CCC(N2CCCC2)CC1 [Example 76, [3,5-Dicyclopropyl-1-(3-trifluoromethoxy-phenyl)-1H-pyrazol-4-yl]-(4-pyrrolidin-1-yl-piperidin-1-yl)-methanone]
658	Cc1nn(-c2cccc(C(F)(F)F)c2)c(C)c1C(=O)N1CCC(N2CCOCC2)CC1 [Example 83, [3,5-Dimethyl-1-(3-trifluoromethyl-phenyl)-1H-pyrazol-4-yl]-(4-morpholin-4-yl-piperidin-1-yl)-methanone]
306	CC(=O)N[C@@H]1CCN(C2CCN(C(=O)c3c(C)nn(-c4cccc(OC(F)(F)F)c4)c3C)CC2)C1 [Example 119, N-((R)-1-{1-[3,5-Dimethyl-1-(3-trifluoromethoxy-phenyl)-1H-pyrazole-4-carbonyl]-piperidin-4-yl}-pyrrolidin-3-yl)-acetamide]
730	Cc1nn(-c2cccc(OC(F)(F)F)c2)c(C)c1C(=O)N1CCC(N2CCCC2C)C1 (centres unmarked) [Example 122, [3,5-Dimethyl-1-(3-trifluoromethoxy-phenyl)-1H-pyrazol-4-yl]-(2-methyl-[1,3′]bipyrrolidinyl-1′-yl)-methanone]
141	Cc1nn(-c2cccc(OC(F)(F)F)c2)c(C2CC2)c1C(=O)N1CCC(N2CCC3(C2)NC(=O)NC3=O)CC1 (centres unmarked) [Example 139, 7-{1-[5-Cyclopropyl-3-methyl-1-(3-trifluoromethoxy-phenyl)-1H-pyrazole-4-carbonyl]-piperidin-4-yl}-1,3,7-triaza-spiro[4.4]nonane-2,4-dione]
97.2	Cc1c(C(=O)N2CCC(N3CCC[C@H]3CO)CC2)c(-c2ccncc2)nn1-c1cccc(OC(F)(F)F)c1 [Example 161, [4-((S)-2-Hydroxymethyl-pyrrolidin-1-yl)-piperidin-1-yl]-[5-methyl-3-pyridin-4-yl-1-(3-trifluoromethoxy-phenyl)-1H-pyrazol-4-yl]-methanone]
